# Measured values reported in EP4585599A1, “NITROGEN-CONTAINING FUSED RING COMPOUND, INTERMEDIATE THEREOF, PREPARATION METHOD THEREFOR AND USE THEREOF” (Hangzhou Synrx Therapeutics Biomedical Technology Co., Ltd., priority 2022, dated 2024).
# Like-named read-outs stand apart in the source and are kept apart here.
# How the values were obtained:
# [1] = cells; details: Homo sapiens, DLD-1, 240 h
# [2] = target: T1, helicase domain of the Pol θ protein (Homo sapiens, UniProt O75417); experiment: Biochemical Activity Assay (ADP Glo Assay) of Pol θ inhibitor, ATPase activity
# T1 construct: The helicase domain of the Pol θ protein was purified from insect protein expression system; made in house; host or cells: insect protein expression system
# T1 sequence (O75417 102-554 limits assumed): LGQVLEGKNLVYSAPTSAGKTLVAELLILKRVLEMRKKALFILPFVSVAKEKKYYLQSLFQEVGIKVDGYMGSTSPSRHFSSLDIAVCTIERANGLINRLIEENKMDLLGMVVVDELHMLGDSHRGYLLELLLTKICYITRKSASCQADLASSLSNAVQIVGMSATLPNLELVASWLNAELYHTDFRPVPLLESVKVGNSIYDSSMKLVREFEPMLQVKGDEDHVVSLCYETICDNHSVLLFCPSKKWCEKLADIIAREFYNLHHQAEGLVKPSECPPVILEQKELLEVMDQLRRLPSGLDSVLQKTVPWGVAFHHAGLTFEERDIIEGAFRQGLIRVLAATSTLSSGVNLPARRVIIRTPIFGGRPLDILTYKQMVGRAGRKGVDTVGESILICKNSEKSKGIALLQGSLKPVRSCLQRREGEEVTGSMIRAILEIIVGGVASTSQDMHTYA
# [3] = read-out: Cell viability assay IC50 (nM), CTG assay, CellTiter Glo, read on Day 10, cell line not given
# [4] = read-out: Cell viability assay IC50 (nM), CTG on Day 10, cell line not given (method: DLD1 and DLD1^-/- cells)
# [5] = ADP-Glo assay, ATPase activity of Pol θ helicase domain, ssDNA substrate, read-out: Biochemical assay IC50
# [6] = ADP-Glo, ssDNA substrate, 60 min at room temperature, read-out: Biochemical assay IC50
# [7] = read-out: Cell viability assay IC50 (nM)
SMILES,"IC50 [2, 5] [nM]","IC50 [2, 6] [nM]","IC50 [1, 3] [nM]","IC50 [1, 4] [nM]","IC50 [1, 7] [nM]",IC50 ([2]; Biochemical assay IC50 (nM)) [nM]
"COc1cnc(Cl)cc1-c1cc(C)ncc1C(=O)Nc1nc2cnc(-c3c(C(F)F)nnn3C)cc2s1 [Example 226, 2'-chloro-N-(6-(4-(difluoromethyl)-1-methyl-1H-1,2,3-triazol-5-yl)thiazolo[4,5-c]pyridin-2-yl)-5'-methoxv-6-methyl-[4.4'-bipyridine]-3-carboxamide]",,,,,8.46,4.02
COc1cnc(Cl)c(F)c1-c1cc(C)ncc1C(=O)Nc1nc2cnc(-c3c(C)cnn3C)cc2s1 [Example 210],2.43,,< 1.52,,,
"COc1cnc(Cl)cc1-c1cc(N2CCN(C)C3(CC3)C2=O)ncc1C(=O)Nc1nc2cnc(-c3c(C)nnn3C)cc2s1 [Example 196, 2'-chloro-N-(6-(1,4-dimethyl-1H-1,2,3-triazol-5-yl)thiazolo[4,5-c]pyridin-2-yl)-5'-methoxy-6-(4-methyl-8-oxo-4,7-diazaspiro[2.5]oct-7-yl)-[4,4'-bipyridine]-3-carboxamide]",11.7,,3.83,,,
COc1cccc(F)c1-c1cc(C)ncc1C(=O)Nc1nc2ccc([C@H]3CC[C@H](O)CC3)nc2s1 [Example 32],196,50 to 200,7080,> 1000,,
COc1cnc(Cl)c(F)c1-c1cc(C)ncc1C(=O)Nc1nc2ccc(N3CCC(CO)CC3)nc2s1 [Example 129],8.06,,9.68,,,
COc1cnc(Cl)cc1-c1cncnc1C(=O)Nc1nc2ccc(C3=CCC(O)CC3)nc2s1 (stereo not shown) [Example 6],193,50 to 200,794,500 to 1000,,
"COc1cnc(Cl)cc1-c1cc(C)ncc1C(=O)Nc1nc2ccc(N3CCC(O)C(C)(C)C3)nc2s1 (stereo not shown) [Example 116, 2'-chloro-N-(5-(4-hydroxy-3,3-dimethylpiperidin-1-yl)thiazol[5,4-b]pyridin-2-yl)-5'-me thoxy-6-methyl-[4,4'-bipyridine]-3-carboxamide]",,,,,36.9,10.3
"COc1cnc(Cl)cc1-c1cc(C)ncc1C(=O)Nc1nc2ccc(-c3c(C)nnn3C)nc2s1 [Example 147, 2'-chloro-N-(5-(1,4-dimethyl-1H-1,2,3-triazol-5-yl)thiazolo[5,4-b]pyridin-2-yl)-5'-methoxy-6-methyl-[4,4'-bipyridine]-3-carboxamide]",17.6,,82.5,,,
COc1cnc(C(F)F)cc1-c1cc(C)ncc1C(=O)Nc1nc2cnc(N3CC4(CC(O)C4)C3)nc2s1 [Example 199],7.82,,31.6,,,
COc1cnc(Cl)c(F)c1-c1cc(C)ncc1C(=O)Nc1nc2cnc(-c3c(C)noc3C)cc2s1 [Example 211],2.51,,3.28,,,
COc1cnc(Cl)cc1-c1cc(C)ncc1C(=O)Nc1nc2cnc(-c3nn(CCO)cc3C)cc2s1 [Example 221],4.78,,1850,,,
CCP(=O)(CC)c1ccc(-c2ccc3nc(NC(=O)c4cnc(C)cc4-c4cc(Cl)ncc4OC)sc3c2)cc1 [Example 187],,,,,271,8.75
"COc1cnc(Cl)cc1-c1cc(C)ncc1C(=O)Nc1nc2nnc(C3=CCC(O)CC3)cc2s1 (stereo not shown) [Example 183, 2'-chloro-N-(3-(4-hydroxycyclohexyl-1-en-1-yl)thiazolo[4,5-c]pyridazin-6-yl)-5'-methox y-6-methyl-[4,4'-bipyridine]-3-carboxamide]",,,,,1260,3.41
COc1cnc(Cl)cc1-c1cc(C)ncc1C(=O)Nc1nc2cnc(-c3c(C)cnn3C(C)C)cc2s1 [Example 212],3.48,,2.23,,,

# More lines, main results first:
"IC50 [2, 5] [nM]","IC50 [2, 6] [nM]",SMILES,"IC50 [1, 3] [nM]","IC50 [1, 4] [nM]","IC50 [1, 7] [nM]",IC50 ([2]; Biochemical assay IC50 (nM)) [nM]
6.18,< 50,"COc1cnc(Cl)cc1-c1cc(C)ncc1C(=O)Nc1nc2ncc(N3CCC(O)(CO)CC3)cc2s1 [Example 106, 2'-chloro-N-(6-(4-hydroxy-4-(hydroxymethyl)piperidin-1-yl)thiazolo[4,5-b]pyridin-2-yl) -5'-methoxy-6-methyl-[4,4'-bipyridine]-3-carboxamide]",450,100 to 500,,
15.8,,COc1cnc(Cl)cc1-c1cc(C)ncc1C(=O)Nc1nc2cnc(N3CC[C@@H](O)C[C@@H]3C)nc2s1 [Example 140],68.1,,,
5.58,< 50,"COc1cnc(Cl)cc1-c1cc(C)ncc1C(=O)Nc1nc2ncc(C(=O)N3CCC(O)CC3)cc2s1 [Example 96, 2'-chloro-N-(6-(4-hydroxypiperidin-1-carbonyl)thiazolo[4,5-b]pyridin-2-yl)-5'-methoxy-6-methyl-[4,4'-bipyridine]-3-carboxamide]",7640,> 1000,,
33.1,< 50,COc1cnc(Cl)cc1-c1cc(C)ncc1C(=O)Nc1nc2ccc(C3=CCN(C)CC3)nc2s1 [Example 10],446,100 to 500,,
3.15,< 50,COc1cnc(Cl)cc1-c1cc(C)ncc1C(=O)Nc1nc2ncc(N3CCC(N(C)C)CC3)cc2s1 [Example 72],190,100 to 500,,
16.9,< 50,COc1cnc(Cl)cc1-c1cc(C)ncc1C(=O)Nc1nc2ncc(N3CC4CC3CC4O)cc2s1 (stereo not shown) [Example 62],631,100 to 500,,
7.35,,COc1cnc(Cl)cc1-c1cc(C)ncc1C(=O)Nc1nc2cc(F)c(N3CCC(O)CC3)nc2s1 [Example 126],9.26,,,
14.3,< 50,COc1cnc(Cl)cc1-c1cc(C)ncc1C(=O)Nc1nc2ncc(N3CCC4(CC(O)C4)C3)cc2s1 (stereo not shown) [Example 99],138,100 to 500,,
3.94,< 50,COc1cnc(Cl)cc1-c1cc(C)ncc1C(=O)Nc1nc2ncc(C3=CCC4(CC3)CC(O)C4)cc2s1 (stereo not shown) [Example 77],7.36,< 100,,
8.39,< 50,COc1cnc(Cl)cc1-c1cc(C)ncc1C(=O)Nc1nc2ncc(N3CCS(=O)(=O)CC3)cc2s1 [Example 50],541,500 to 1000,,
9.89,< 50,COc1cnc(Cl)cc1-c1cc(C)ncc1C(=O)Nc1nc2ncc(N3CCC(CO)C3)cc2s1 (stereo not shown) [Example 60],501,100 to 500,,
6.99,< 50,"COc1cnc(Cl)cc1-c1cc(C)ncc1C(=O)Nc1nc2ncc(-c3ccnc(N4CCN[C@H](C)C4)c3)cc2s1 [Example 105, (R)-2'-chloro-5'-methoxy-6-methyl-N-(6-(2-(3-methylpiperazin-1-yl)pyridin-4-yl)thiazolo[4,5-b]pyridin-2-yl)-[4,4'-bipyridine]-3-carboxamide]",152,100 to 500,,
2.36,,COc1cnc(Cl)cc1-c1cc(C)ncc1C(=O)Nc1nc2cnc(-c3c(F)cnn3C)cc2s1 [Example 154],17.8,,,
4.49,,COc1cnc(Cl)cc1-c1cc(C)ncc1C(=O)Nc1nc2cnc(N3CC4(CC(O)C4)C3)nc2s1 [Example 142],104,,,
8.57,< 50,COc1cnc(Cl)c(F)c1-c1cc(C)ncc1C(=O)Nc1nc2ncc(-c3ccn(C)n3)cc2s1 [Example 17],103,100 to 500,,
1.67,< 50,CNC1CCN(c2cnc3nc(NC(=O)c4cnc(C)cc4-c4cc(Cl)ncc4OC)sc3c2)CC1 [Example 73],209,100 to 500,,
